Measurements as given in patent US20200163984A1, “USE OF ISOVALERYL SPIRAMYCIN I, II AND/OR III IN MANUFACTURING MEDICAMENT FOR TREATING AND/OR PREVENTING TUMOR, AND MEDICAMENT” (SHENYANG FUYANG PHARMACEUTICAL TECHNOLOGY CO., LTD., priority 2017, published 2020).
Read-outs that look alike come from different tables or passages of the source.

Columns and labels:
Conditions in all cases: for Tumor Volume (mm3) (d 1): d1
[1] = system: transplanted tumor of human hepatoma cell HepG-2; assay: HepG-2 transplanted tumor in nude mice
Procedure: (§1) Then cell concentration was adjusted to 1×10^7/ml with matrigel, then each nude mouse was inoculated subcutaneously with 0.2 ml of cells at its right armpit and recorded as the first day of inoculation. When the tumor grows to be greater than or equal to 100 mm^3, the mice were randomly divided into 11 groups with 6 mice in each group: a model group, a cyclophosphamide group, isovaleryl spiramycin I groups with doses of 25, 50 and 100 mg/kg, isovaleryl spiramycin II groups with doses of 25, 50 and 100 mg/kg, and isovaleryl spiramycin III groups with doses of 25, 50 and 100 mg/kg. Each group was continuously administered intragastrically for 30 days with a dose of 20 ml/kg. The mice were sacrificed the next day after drug withdrawal and the indicators were tested. The long diameter and short diameter of the tumor, and the body weight of each mouse were recorded every 3 days from drug administration to nude mouse sacrifice.
(§2) The body weight of the nude mice and the long diameter (a) and short diameter (b) of the transplanted tumor were measured every 3 days, and the tumor volume (v), relative tumor volume (RTV) and relative tumor proliferation rate (T/C) are calculated respectively according to the following formulas, wherein V=a×b^2/2; RTV=V/V0 (V0 is the tumor volume before administration, V is the tumor volume before sacrifice), and T/C (%)=treatment group RTV/model control group RTV×100%.
(§3) Each mouse was weighed and sacrificed. After the tumor was completely stripped off from the body of the mouse, the non-tumor tissues such as blood stains and fat were removed to weigh the tumor and calculate the tumor growth inhibition rate. The average tumor weight of each group of mice is used as an indicator of efficacy. Tumor growth inhibition rate (%)=(1−the average tumor weight of the treatment group/the average tumor weight of the model group)×100%.

[2] = system: transplanted tumor of human glioblastoma cell A172
Method in brief: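 Nude mice bearing subcutaneous A172 xenografts (cells in matrigel) randomized at ≥100 mm^3, 6 per group; isovaleryl spiramycin I, II or III at 25, 50 or 100 mg/kg given intragastrically for 30 days, temozolomide as comparator. Endpoints: RTV-based T/C (%) and tumor-weight inhibition at sacrifice.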

[3] = system: transplanted tumor of human cervical cancer cell HeLa; assay: HeLa transplanted tumor in nude mice
Procedure: as §1, with “HeLa cells in a logarithmic growth phase were taken and subjected to a trypan blue exclusion experiment showing that the cell viability was more than 95%, then the cells were subjected to trypsinization, centrifugation, and supernatant removal. Then” for “Then”
as §2, §3

[4] = HepG-2, high dose (100 mg/kg in method) i.g. 30 days
[5] = HepG-2, low dose (25 mg/kg in method) i.g. 30 days
[6] = HepG-2, medium dose (50 mg/kg in method) i.g. 30 days
[7] = A172, high dose (100 mg/kg in method) i.g. 30 days
[8] = A172, low dose (25 mg/kg in method) i.g. 30 days
[9] = A172, medium dose (50 mg/kg in method) i.g. 30 days
[10] = HeLa, high dose (100 mg/kg in method) i.g. 30 days
[11] = HeLa, low dose (25 mg/kg in method) i.g. 30 days
[12] = HeLa, medium dose (50 mg/kg in method) i.g. 30 days

With CCC(=O)O[C@@H]1CC(=O)O[C@H](C)C/C=C/C=C/[C@H](O[C@H]2CC[C@H](N(C)C)[C@@H](C)O2)[C@H](C)C[C@H](CC=O)[C@H](O[C@@H]2O[C@H](C)[C@@H](O[C@H]3C[C@@](C)(O)[C@@H](OC(=O)CC(C)C)[C@H](C)O3)[C@H](N(C)C)[C@H]2O)[C@H]1OC [Isovaleryl spiramycin III, isovaleryl spiramycin III] the “Relative Tumor Proliferation Rate (T/C)” value [1, 4] was 32.71%, the “tumor growth inhibition rate” value [1, 4] was 63.28% and the “Relative Tumor Proliferation Rate (T/C)” value [1, 5] was 64.69%. The “tumor growth inhibition rate” value [1, 5] was 38.92%, the “tumor volume and relative tumor volume compared with the model group” value (“tumor volume and relative tumor volume” for short) ([1]; HepG-2, low, medium and high doses, P<0.05) was “significantly lower” and the “Relative Tumor Proliferation Rate (T/C)” value [1, 6] was 43.18%. For the same compound, the “tumor growth inhibition rate” value [1, 6] was 60.54%, the “Inhibition Rate (%)” value ([1]; HepG-2 nude mice, 25 mg/kg) was 38.92% and the “Relative Tumor Proliferation Rate (T/C)” value ([1]; HepG-2 nude mice, 25 mg/kg) was 64.69%. The “Relative Tumor Volume (RTV)” value ([1]; HepG-2 nude mice, 25 mg/kg) was 10.83 ± 2.47, the “Tumor Weight” value ([1]; HepG-2 nude mice, 25 mg/kg) was 1.48 ± 0.42 g and the “Tumor Volume (mm3) (d 1)” value ([1]; HepG-2 nude mice, 25 mg/kg) was 116.67 ± 8.32 mm3. For the same compound, the “Tumor Volume (mm3) (d30)” value ([1]; HepG-2 nude mice, 25 mg/kg) was 1261.48 ± 283.95 mm3, the “Inhibition Rate (%)” value ([1]; HepG-2 nude mice, 50 mg/kg) was 60.54% and the “Relative Tumor Proliferation Rate (T/C)” value ([1]; HepG-2 nude mice, 50 mg/kg) was 43.18%. For the same compound, the “Relative Tumor Volume (RTV)” value ([1]; HepG-2 nude mice, 50 mg/kg) was 7.23 ± 2.57, the “Tumor Weight” value ([1]; HepG-2 nude mice, 50 mg/kg) was 0.96 ± 0.44 g and the “Tumor Volume (mm3) (d 1)” value ([1]; HepG-2 nude mice, 50 mg/kg) was 119.43 ± 10.86 mm3. The “Tumor Volume (mm3) (d30)” value ([1]; HepG-2 nude mice, 50 mg/kg) was 852.87 ± 293.29 mm3, the “Inhibition Rate (%)” value ([1]; HepG-2 nude mice, 100 mg/kg) was 63.28% and the “Relative Tumor Proliferation Rate (T/C)” value ([1]; HepG-2 nude mice, 100 mg/kg) was 32.71%. The “Relative Tumor Volume (RTV)” value ([1]; HepG-2 nude mice, 100 mg/kg) was 5.48 ± 3.19, the “Tumor Weight” value ([1]; HepG-2 nude mice, 100 mg/kg) was 0.89 ± 0.46 g and the “Tumor Volume (mm3) (d 1)” value ([1]; HepG-2 nude mice, 100 mg/kg) was 118.26 ± 6.57 mm3. For the same compound, the “Tumor Volume (mm3) (d30)” value ([1]; HepG-2 nude mice, 100 mg/kg) was 641.99 ± 364.25 mm3, the “mouse weight compared with the model group” value ([1]; mouse, in vivo) was “no significant changes” and the “Body Weight (g) (d1)” value ([1]; mouse, in vivo, 25 mg/kg) was 21.07 ± 1.24 g. The “Body Weight (g) (d30)” value ([1]; mouse, in vivo, 25 mg/kg) was 23.94 ± 1.67 g, the “Body Weight (g) (d1)” value ([1]; mouse, in vivo, 50 mg/kg) was 21.25 ± 1.86 g and the “Body Weight (g) (d30)” value ([1]; mouse, in vivo, 50 mg/kg) was 24.36 ± 1.53 g. For the same compound, the “Body Weight (g) (d1)” value ([1]; mouse, in vivo, 100 mg/kg) was 20.47 ± 2.24 g, the “Body Weight (g) (d30)” value ([1]; mouse, in vivo, 100 mg/kg) was 23.64 ± 1.44 g and the “Relative Tumor Proliferation Rate (T/C)” value [2, 7] was 40.08%. For the same compound, the “tumor growth inhibition rate” value [2, 7] was 59.19%, the “Relative Tumor Proliferation Rate (T/C)” value [2, 8] was 66.45% and the “tumor growth inhibition rate” value [2, 8] was 15.35%. For the same compound, the “tumor volume and relative tumor volume” value ([2]; A172, low, medium and high doses, P<0.05) was “significantly lower”, the “Relative Tumor Proliferation Rate (T/C)” value [2, 9] was 52.89% and the “tumor growth inhibition rate” value [2, 9] was 32.54%. The “Inhibition Rate (%)” value ([2]; A172 nude mice, 12.5 mg/kg) was 15.35%, the “Relative Tumor Proliferation Rate (T/C)” value ([2]; A172 nude mice, 12.5 mg/kg) was 66.45% and the “Relative Tumor Volume (RTV)” value ([2]; A172 nude mice, 12.5 mg/kg) was 13.47 ± 1.67. For the same compound, the “Tumor Weight” value ([2]; A172 nude mice, 12.5 mg/kg) was 1.18 ± 0.11 g, the “Tumor Volume (mm3) (d 1)” value ([2]; A172 nude mice, 12.5 mg/kg) was 121.75 ± 9.98 mm3 and the “Tumor Volume (mm3) (d30)” value ([2]; A172 nude mice, 12.5 mg/kg) was 1305.51 ± 212.02 mm3. For the same compound, the “Inhibition Rate (%)” value ([2]; A172 nude mice, 25 mg/kg) was 32.54%, the “Relative Tumor Proliferation Rate (T/C)” value ([2]; A172 nude mice, 25 mg/kg) was 52.89% and the “Relative Tumor Volume (RTV)” value ([2]; A172 nude mice, 25 mg/kg) was 12.63 ± 1.27. For the same compound, the “Tumor Weight” value ([2]; A172 nude mice, 25 mg/kg) was 0.94 ± 0.12 g, the “Tumor Volume (mm3) (d 1)” value ([2]; A172 nude mice, 25 mg/kg) was 118.81 ± 8.97 mm3 and the “Tumor Volume (mm3) (d30)” value ([2]; A172 nude mice, 25 mg/kg) was 1047.77 ± 165.77 mm3. For the same compound, the “Inhibition Rate (%)” value ([2]; A172 nude mice, 50 mg/kg) was 59.19%, the “Relative Tumor Proliferation Rate (T/C)” value ([2]; A172 nude mice, 50 mg/kg) was 40.08% and the “Relative Tumor Volume (RTV)” value ([2]; A172 nude mice, 50 mg/kg) was 10.96 ± 0.82. For the same compound, the “Tumor Weight” value ([2]; A172 nude mice, 50 mg/kg) was 0.57 ± 0.05 g, the “Tumor Volume (mm3) (d 1)” value ([2]; A172 nude mice, 50 mg/kg) was 118.44 ± 6.21 mm3 and the “Tumor Volume (mm3) (d30)” value ([2]; A172 nude mice, 50 mg/kg) was 795.73 ± 174.84 mm3. The “mouse weight compared with the model group” value ([2]; mouse, in vivo) was “no significant changes”, the “Body Weight (g) (d1)” value ([2]; mouse, in vivo, 12.5 mg/kg) was 21.54 ± 0.36 g and the “Body Weight (g) (d30)” value ([2]; mouse, in vivo, 12.5 mg/kg) was 20.64 ± 0.54 g. The “Body Weight (g) (d1)” value ([2]; mouse, in vivo, 25 mg/kg) was 20.98 ± 0.47 g, the “Body Weight (g) (d30)” value ([2]; mouse, in vivo, 25 mg/kg) was 21.54 ± 0.72 g and the “Body Weight (g) (d1)” value ([2]; mouse, in vivo, 50 mg/kg) was 21.59 ± 0.32 g. For the same compound, the “Body Weight (g) (d30)” value ([2]; mouse, in vivo, 50 mg/kg) was 20.67 ± 0.56 g, the “Inhibition Rate (%)” value ([3]; HeLa nude mice, 12.5 mg/kg) was 39.33% and the “Relative Tumor Proliferation Rate (T/C)” value ([3]; HeLa nude mice, 12.5 mg/kg) was 62.92%. For the same compound, the “Relative Tumor Volume (RTV)” value ([3]; HeLa nude mice, 12.5 mg/kg) was 1.43 ± 1.47, the “Tumor Weight” value ([3]; HeLa nude mice, 12.5 mg/kg) was 1.17 ± 0.64 g and the “Tumor Volume (mm3) (d 1)” value ([3]; HeLa nude mice, 12.5 mg/kg) was 123.36 ± 21.45 mm3. The “Tumor Volume (mm3) (d30)” value ([3]; HeLa nude mice, 12.5 mg/kg) was 1281.92 ± 242.71 mm3, the “Inhibition Rate (%)” value ([3]; HeLa nude mice, 25 mg/kg) was 52.41% and the “Relative Tumor Proliferation Rate (T/C)” value ([3]; HeLa nude mice, 25 mg/kg) was 52.05%. For the same compound, the “Relative Tumor Volume (RTV)” value ([3]; HeLa nude mice, 25 mg/kg) was 8.63 ± 3.37, the “Tumor Weight” value ([3]; HeLa nude mice, 25 mg/kg) was 0.92 ± 0.49 g and the “Tumor Volume (mm3) (d 1)” value ([3]; HeLa nude mice, 25 mg/kg) was 115.2 ± 27.18 mm3. The “Tumor Volume (mm3) (d30)” value ([3]; HeLa nude mice, 25 mg/kg) was 1007.46 ± 481.36 mm3, the “Inhibition Rate (%)” value ([3]; HeLa nude mice, 50 mg/kg) was 61.68% and the “Relative Tumor Proliferation Rate (T/C)” value ([3]; HeLa nude mice, 50 mg/kg) was 39.33%. For the same compound, the “Relative Tumor Volume (RTV)” value ([3]; HeLa nude mice, 50 mg/kg) was 6.52 ± 0.73, the “Tumor Weight” value ([3]; HeLa nude mice, 50 mg/kg) was 0.75 ± 0.11 g and the “Tumor Volume (mm3) (d 1)” value ([3]; HeLa nude mice, 50 mg/kg) was 113.35 ± 20.84 mm3. For the same compound, the “Tumor Volume (mm3) (d30)” value ([3]; HeLa nude mice, 50 mg/kg) was 727.16 ± 46.92 mm3, the “Relative Tumor Proliferation Rate (T/C)” value [3, 10] was 61.68% and the “tumor growth inhibition rate” value [3, 10] was 61.68%. For the same compound, the “Relative Tumor Proliferation Rate (T/C)” value [3, 11] was 39.33%, the “tumor growth inhibition rate” value [3, 11] was 39.33% and the “tumor volume and relative tumor volume” value ([3]; HeLa, low, medium and high doses, P<0.05) was “significantly lower”. For the same compound, the “Relative Tumor Proliferation Rate (T/C)” value [3, 12] was 52.41%, the “tumor growth inhibition rate” value [3, 12] was 52.41% and the “mouse weight compared with the model group” value ([3]; mouse, in vivo) was “no significant changes”. For the same compound, the “Body Weight (g) (d1)” value ([3]; mouse, in vivo, 12.5 mg/kg) was 21.30 ± 0.64 g, the “Body Weight (g) (d30)” value ([3]; mouse, in vivo, 12.5 mg/kg) was 20.67 ± 0.45 g and the “Body Weight (g) (d1)” value ([3]; mouse, in vivo, 25 mg/kg) was 20.87 ± 0.78 g. For the same compound, the “Body Weight (g) (d30)” value ([3]; mouse, in vivo, 25 mg/kg) was 20.80 ± 0.55 g, the “Body Weight (g) (d1)” value ([3]; mouse, in vivo, 50 mg/kg) was 21.09 ± 0.51 g and the “Body Weight (g) (d30)” value ([3]; mouse, in vivo, 50 mg/kg) was 21.10 ± 0.52 g.
